Laboratory results: EP4789680A1, “NOVEL PACE4 INHIBITOR AND USE THEREOF IN ANTI-OSTEOARTHRITIS” (Inflamax Pharmaceuticals Limited, priority 2023, dated 2025)
Where a SMILES comes first, the peptide text is derived from it. Where no end group is shown, it is not given here. [ ]: non-standard residue; d: D form. ξ: configuration not given here. Abu(1-amidino-4-piperidyl) = N=C(N)N1CCC(CC[C@H](N)C(=O)O)CC1; Phe(4-guanidino) = N=C(N)Nc1ccc(C[C@H](N)C(=O)O)cc1; Phe(4-CF3) = N[C@@H](Cc1ccc(C(F)(F)F)cc1)C(=O)O; dThr(3ξ) = CC(O)[C@@H](N)C(=O)O

B1: Ac-R-F(4-CF3)-K-R-T-NH2 (peptide)
peptide: Ac-R[Phe(4-CF3)]KRT-NH2
SMILES: CC(=O)N[C@@H](CCCNC(=N)N)C(=O)N[C@@H](Cc1ccc(C(F)(F)F)cc1)C(=O)N[C@@H](CCCCN)C(=O)N[C@@H](CCCNC(=N)N)C(=O)N[C@H](C(N)=O)[C@@H](C)O
B2: Ac-R-F(4-CF3)-K-R-dT-NH2 (peptide)
peptide: Ac-R[Phe(4-CF3)]KR[dT]-NH2
SMILES: CC(=O)N[C@@H](CCCNC(=N)N)C(=O)N[C@@H](Cc1ccc(C(F)(F)F)cc1)C(=O)N[C@@H](CCCCN)C(=O)N[C@@H](CCCNC(=N)N)C(=O)N[C@@H](C(N)=O)[C@H](C)O
B3: P-dR-R-F-K-R-dT-NH2 (peptide)
peptide: P[dR]RFKR[dT]-NH2
modifications: N-terminus assumed
SMILES: C[C@H](O)[C@@H](NC(=O)[C@H](CCCNC(=N)N)NC(=O)[C@H](CCCCN)NC(=O)[C@H](Cc1ccccc1)NC(=O)[C@H](CCCNC(=N)N)NC(=O)[C@@H](CCCNC(=N)N)NC(=O)[C@@H]1CCCN1)C(N)=O
B4: dP-dR-R-F-K-R-dT-NH2 (peptide)
peptide: [dP][dR]RFKR[dT]-NH2
modifications: N-terminus assumed
SMILES: C[C@H](O)[C@@H](NC(=O)[C@H](CCCNC(=N)N)NC(=O)[C@H](CCCCN)NC(=O)[C@H](Cc1ccccc1)NC(=O)[C@H](CCCNC(=N)N)NC(=O)[C@@H](CCCNC(=N)N)NC(=O)[C@H]1CCCN1)C(N)=O

Target: T1, PACE4 (UniProt P29122 150-969, limits assumed)
T1 sequence (looked up): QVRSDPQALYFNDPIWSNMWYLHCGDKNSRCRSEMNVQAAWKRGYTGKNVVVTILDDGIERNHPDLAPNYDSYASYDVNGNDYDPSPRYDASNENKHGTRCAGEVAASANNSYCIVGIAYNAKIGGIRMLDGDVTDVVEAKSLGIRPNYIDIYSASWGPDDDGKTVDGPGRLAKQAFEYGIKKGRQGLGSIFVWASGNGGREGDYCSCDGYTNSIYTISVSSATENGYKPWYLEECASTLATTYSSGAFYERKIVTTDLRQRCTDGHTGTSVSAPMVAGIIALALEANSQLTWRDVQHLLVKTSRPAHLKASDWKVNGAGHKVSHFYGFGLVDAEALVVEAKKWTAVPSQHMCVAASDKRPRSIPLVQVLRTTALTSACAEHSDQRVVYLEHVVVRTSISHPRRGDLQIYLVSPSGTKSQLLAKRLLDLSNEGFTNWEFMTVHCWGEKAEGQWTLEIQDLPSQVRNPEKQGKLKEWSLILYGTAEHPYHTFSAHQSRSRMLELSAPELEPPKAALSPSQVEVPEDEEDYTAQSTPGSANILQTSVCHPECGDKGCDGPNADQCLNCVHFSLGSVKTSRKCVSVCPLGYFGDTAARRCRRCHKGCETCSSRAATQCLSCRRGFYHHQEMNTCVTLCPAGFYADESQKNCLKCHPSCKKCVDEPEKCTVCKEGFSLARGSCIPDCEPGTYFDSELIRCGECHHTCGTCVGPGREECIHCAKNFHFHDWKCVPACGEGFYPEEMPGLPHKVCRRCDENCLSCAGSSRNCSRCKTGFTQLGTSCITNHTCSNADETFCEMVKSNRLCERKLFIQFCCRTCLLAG
Experiment: cell-based or functional assay
Conditions: not given

| Molecule | IC50 (µM), PACE4 enzyme inhibition, fluorogenic substrate pyroGlu-Arg-Val-Lys-Arg-methyl-coumaryl-7-amide |
| --- | --- |
| B1 | 0.74 µM |
| B2 | 0.35 µM |
| B3 | 0.02 µM |
| B4 | 0.07 µM |

System: traumatic osteoarthritis model
Experiment: MMT surgery traumatic osteoarthritis model, test for preventive efficacy
Assay type: in vivo, SD rats
Conditions: compared to the OA group; intra-articular injection 3 days and 1 day before MMT surgery; 0.1 mg/kg; sacrificed day 7
Procedure: In this example, a traumatic osteoarthritis model was established by performing a medial meniscus tear (MMT) surgery to verify the preventive effect of the PACE4 inhibitory peptides on OA. In the test for preventive efficacy, the PACE4 inhibitory peptide was administered via intra-articular injection 3 days and 1 day before the modeling surgery (i.e., a total of 2 administrations). In the following examples, the dosage of PACE4 inhibitory peptide was 0.1 mg/kg animal body weight.
Specifically, in the test for preventive efficacy, 24 SD rats were divided into 3 groups (including a control group, an OA modeling group (surgery group), and an OA modeling + preventive administration group (surgery group + drug intervention)), with 8 rats per group. For the OA modeling + preventive administration group, intra-articular injections were administered 3 days and 1 day before MMT surgery. Rats in each group were sacrificed on day 7 after modeling, and joint tissues were collected. Each PACE4 inhibitory peptide was tested individually to determine the preventive effect of each PACE4 inhibitory peptide. Among them, the polypeptide Ac-R-F-K-R-NH2 (control molecule) was selected as a control example. […]

| Molecule | OARSI score reduced, preventive test |
| --- | --- |
| CC(=O)N[C@@H](CCCNC(=N)N)C(=O)N[C@@H](Cc1ccccc1)C(=O)N[C@@H](CCCCN)C(=O)N[C@@H](CCCNC(=N)N)C(N)=O [Ac-R-F-K-R-NH2] (Ac-RFKR-NH2) | 4% |

Target: T2, PACE4 (Homo sapiens, UniProt P29122)
T2 sequence (P29122 150-969): T1 sequence (looked up)
Experiment: PACE4 enzyme inhibition experiment (fluorogenic substrate, competitive inhibition)
Assay type: biochemical
Conditions: substrate pyroGlu-Arg-Val-Lys-Arg-methyl-coumaryl-7-amide 100 µM, pH 6.5, 37°C, 60 min
Procedure: The PACE4 inhibitory peptides obtained from the above example were subjected to in vitro assay of PACE4 inhibitory effect. The specific steps were as follows: the PACE4 enzyme inhibition experiment was performed in a solution containing 20 mM Bis-Tis at pH 6.5, 1 mM CaCl2, and 1.8 mg/mL BSA. All assays were performed using pyroGlu-Arg-Val-Lys-Arg-methyl-coumaryl-7-amide (Bachem, CA) (100 µM) as the substrate. The assay was conducted at 37°C for 60 min. A Gemini EM 96-well fluorescence spectrometer (Molecular Devices, CA) (Ex: 370 nm, Em: 460 nm) was used. The PACE4 inhibitory peptide involved in the present patent was added to the test solution at different concentrations for competitive inhibition assay to determine the IC50 value of the peptide.

| Molecule | IC50 |
| --- | --- |
| CC(=O)N[C@@H](CCCNC(=N)N)C(=O)N[C@@H](CCCNC(=N)N)C(=O)N[C@@H](Cc1ccc(C(F)(F)F)cc1)C(=O)N[C@@H](CCCCN)C(=O)N[C@@H](CCCNC(=N)N)C(=O)N[C@@H](C(N)=O)[C@H](C)O [Ac-R-R-F(4-CF3)-K-R-dT-NH2] (Ac-RR[Phe(4-CF3)]KR[dT]-NH2) | 90 nM |
| C[C@H](O)[C@@H](NC(=O)[C@H](CCCNC(=N)N)NC(=O)[C@H](CCCCN)NC(=O)[C@H](Cc1ccc(C(F)(F)F)cc1)NC(=O)[C@H](CCCNC(=N)N)NC(=O)[C@@H](CCCNC(=N)N)NC(=O)[C@H]1CCCN1)C(N)=O [dP-dR-RF(4-CF3)-K-R-dT-NH2, dP-dR-R-F(4-CF3)-K-R-dT-NH2] (H-[dP][dR]R[Phe(4-CF3)]KR[dT]-NH2) | 20 nM |
| C[C@H](O)[C@@H](NC(=O)[C@H](CCCNC(=N)N)NC(=O)[C@H](CCCCN)NC(=O)[C@H](Cc1ccc(C(F)(F)F)cc1)NC(=O)[C@H](CCCNC(=N)N)NC(=O)[C@@H](CCCNC(=N)N)NC(=O)[C@@H]1CCCN1)C(N)=O [P-dR-R-F(4-CF3)-K-R-dT-NH2] (H-P[dR]R[Phe(4-CF3)]KR[dT]-NH2) | 20 nM |
| CC(=O)N[C@@H](CCCNC(=N)N)C(=O)N[C@@H](CCCNC(=N)N)C(=O)N[C@@H](CCC1CCN(C(=N)N)CC1)C(=O)N[C@@H](CCCCN)C(=O)N[C@@H](CCCNC(=N)N)C(=O)N[C@@H](C(N)=O)C(C)O (stereo partly drawn) [Ac-R-R-A(4-Pip)-K-R-dT-NH2] (Ac-RR[Abu(1-amidino-4-piperidyl)]KR[dThr(3ξ)]-NH2) | 90 nM |
| C[C@H](O)[C@@H](NC(=O)[C@H](CCCNC(=N)N)NC(=O)[C@H](CCCCN)NC(=O)[C@H](Cc1ccccc1)NC(=O)[C@H](CCCNC(=N)N)NC(=O)[C@@H](CCCNC(=N)N)NC(=O)[C@@H]1CCCN1)C(N)=O [P-dR-R-F-K-R-dT-NH2] (H-P[dR]RFKR[dT]-NH2) | 20 nM |
| C[C@H](O)[C@@H](NC(=O)[C@H](CCCNC(=N)N)NC(=O)[C@H](CCCCN)NC(=O)[C@H](Cc1ccccc1)NC(=O)[C@H](CCCNC(=N)N)NC(=O)[C@@H](CCCNC(=N)N)NC(=O)[C@H]1CCCN1)C(N)=O [dP-dR-R-F-K-R-dT-NH2] (H-[dP][dR]RFKR[dT]-NH2) | 70 nM |

System: traumatic osteoarthritis model
Experiment: MMT surgery traumatic osteoarthritis model, test for therapeutic efficacy
Assay type: in vivo, Sprague Dawley (SD) rats
Conditions: compared to the OA group; intra-articular injection on day 3 and day 10 after MMT surgery; sacrificed day 14
Procedure: In this example, a traumatic osteoarthritis model was established by performing a medial meniscus tear (MMT) surgery to verify the therapeutic effect of the PACE4 inhibitory peptides on OA. In the test for therapeutic efficacy, the injections were administered on day 3 and day 10 after the surgical modeling (i.e., a total of 2 administrations).
Specifically, in the test for therapeutic efficacy, 24 Sprague Dawley (SD) rats were divided into 3 groups (including a control group, an OA modeling group (surgery group), and an OA modeling + therapeutic administration group (surgery group + drug intervention)), with 8 rats per group. For the OA modeling + therapeutic administration group, intra-articular injections were administered on day 3 and day 10 after MMT surgery. Rats in each group were sacrificed on day 14 after modeling, and joint tissues were collected. Each PACE4 inhibitory peptide was tested individually to determine the therapeutic effect of each PACE4 inhibitory peptide. Among them, the polypeptide Ac-R-F-K-R-NH2 (control molecule) was selected as a control example.
Cartilage tissue was collected from each group as samples. The collected cartilage tissue samples were decalcified according to conventional procedures in the art, then embedded in paraffin, and sectioned at a thickness of 7 µm. Safranin O-fast green staining was performed, and the cartilage degeneration was assessed using OARSI scoring. In addition, TRAP staining was performed to determine the subchondral bone resorption in rats before and after MMT surgery and during treatment with the PACE4 inhibitory peptide.

| Molecule | OARSI score reduced, therapeutic test |
| --- | --- |
| CC(=O)N[C@H](CCCNC(=N)N)C(=O)N[C@@H](CCCNC(=N)N)C(=O)N[C@@H](Cc1ccccc1)C(=O)N[C@@H](CCCCN)C(=O)N[C@@H](CCCNC(=N)N)C(=O)N[C@@H](C(N)=O)[C@H](C)O [Ac-dR-R-F-K-R-dT-NH2] (Ac-[dR]RFKR[dT]-NH2) | 28% |
| CC(=O)N[C@H](CCCNC(=N)N)C(=O)N[C@@H](CCCNC(=N)N)C(=O)N[C@@H](Cc1ccc(C(F)(F)F)cc1)C(=O)N[C@@H](CCCCN)C(=O)N[C@@H](CCCNC(=N)N)C(=O)N[C@@H](C(N)=O)[C@H](C)O [Ac-dR-R-F(4-CF3)-K-R-dT-NH2] (Ac-[dR]R[Phe(4-CF3)]KR[dT]-NH2) | 34.6% |
| CC(=O)N[C@H](CCCNC(=N)N)C(=O)N[C@@H](CCCNC(=N)N)C(=O)N[C@@H](Cc1ccc(NC(=N)N)cc1)C(=O)N[C@@H](CCCCN)C(=O)N[C@@H](CCCNC(=N)N)C(=O)N[C@@H](C(N)=O)[C@H](C)O [Ac-dR-R-F(4-Guan)-K-R-dT-NH2] (Ac-[dR]R[Phe(4-guanidino)]KR[dT]-NH2) | 38.5% |
| CC(=O)N[C@@H](CCCNC(=N)N)C(=O)N[C@@H](Cc1ccccc1)C(=O)N[C@@H](CCCCN)C(=O)N[C@@H](CCCNC(=N)N)C(N)=O [Ac-R-F-K-R-NH2] (Ac-RFKR-NH2) | 10% |
